Data on two substances can be found in paper PMC13233288, “Spider venom peptides Ht1a and Gg1a are toxic to honeybee parasite Varroa destructor by topical application” (npj Drug Discovery, 2026).

One data set relates to honeybees. Put plainly: Topical application of synthetic peptides to honeybees (off-target). The following applies: 25 μg peptide per honeybee (52-fold the mite dose) in 2% Silwet (v/v), n = 10 workers per group, 3 repeats, vs 2% Silwet control. In kind it is in vivo, Apis mellifera. From the text:
If sprayed within a beehive, the varroacidal peptides would need to lethal for V. destructor, but safe for the honeybees. To evaluate potential off-target activities of the varroacidal peptides, we first needed to quantify how much larger the body surface of the bees is in comparison to the mites to understand how much more of the varroacidal peptides they would receive when being sprayed. Assuming an elliptical body shape of V. destructor, the surface area can be calculated according to the following formula: A=π×a×b×2
This also means that if we evenly applied these peptides via spraying at a certain concentration to both bees and mites, then the bees would receive a 34-fold higher peptide quantity due to their correspondingly higher surface area.
To allow for an additional safety margin, we topically applied 25 μg of each peptide per bee, which is 52-fold more than the 0.48 μg that each varroa mite received. The effects of sHt1a and sGg1a were tested on honeybees kept in plastic containers in the laboratory. The containers consisted of 250 ml polypropylene round cups with a 52 mm diameter hole cut into the bottom, covered with a 68 mm diameter circle of all-purpose cloth (brand: Peggy Perfect) hot glued to the edge of the hole on the outside of the cup (Supplementary Fig. 3). A 14 mm diameter hole was cut in the lid of the cup to insert a 5 mL syringe which served as feeder. The syringe was filled with 50% sucrose solution, and its tip was cut off to facilitate solution intake by the bees. Honeybee workers were obtained from a comb with emerging individuals placed in an incubator set to 34.5 °C and 70% humidity. The next day, groups of 10 freshly emerged workers were collected, introduced into the prepared cages and placed back in the incubator overnight. The next morning, peptide and control solutions to be tested were freshly prepared from the stock solutions stored at 4 °C. Then, the bees were sedated with CO2 gas until they stopped moving. Immediately after all bees stopped moving, the plastic lid was removed, and 15 µL of testing solution (containing 2% Silwet (v/v) or 25 μg of each peptide per bee) was topically applied on each of the 10 bees per group. The solution was applied on the abdomen or thorax, but not on the wings or head of the individuals. Following treatment, the worker bees were allowed to recover from the sedation and the containers with the bees were put back in the incubator, with mortality being manually checked daily. At the end of each experiment, all arthropods were euthanised by freezing at −20 °C.

The subject of another data set is VdNaV. As to the kind of experiment: Two-electrode voltage clamp, VdNaV expressed in Xenopus laevis oocytes. The data set is classed as biochemical, V. destructor. The conditions noted are these: for varroa vs honeybee NaV channel potency: VdNaV compared with AmNaV, 500 nM. An excerpt: (§1) To examine the activity of sHt1a against target and off-target arthropod voltage-gated sodium (NaV) channels, we used electrophysiological recordings of V. destructor (Vd) or A. mellifera (Am) NaV channels expressed in Xenopus laevis oocytes. The cDNA sequences of the VdNaV (in pGH19; kindly gifted by K. Dong[31]) and AmNaV channel (in pcDNA3.1; Genscript, USA) were confirmed by automated Sanger sequencing (Eurofins Genomics, Germany). RNA was synthesised using T7 polymerase (mMessage mMachine kit, Invitrogen, USA) after linearising the cDNA with an appropriate restriction enzyme (New England Biolabs, USA). NaV channel RNA was microinjected into defolliculated X. laevis oocytes (Nasco®, USA) which were then incubated for 2–3 days at 17 °C in Barth’s medium (in millimolar (mM): 96 NaCl, 2 KCl, 5 HEPES, 1 MgCl2, and 1.8 CaCl2 supplemented with 50 µg/mL gentamycin, pH 7.4 adjusted with NaOH (Sigma, USA)). The use of X. laevis complied with national and Flemish guidelines adhered to by the Ghent University Animal Care and Use Committee. Electrophysiological characteristics were studied using the two-electrode voltage-clamp technique (OC-725C; Warner Instruments, USA) with a 150-µL recording chamber as previously described. All data were filtered at 4 kHz (tunable active filter model 900, Frequency Devices Inc., USA) and digitised at 20 kHz using pClamp 10 software (Molecular Devices, USA). The external recording solution used was ND-100 (in mM: 100 NaCl, 5 HEPES, 1 MgCl2, and 1.8 CaCl2, pH 7.6 adjusted with NaOH; chemicals from Sigma, USA). Microelectrode (Narishige® PC-10 vertical puller) resistances were 0.5–1.0 MΩ when backfilled with 3 M KCl. All experiments were performed at room temperature (~22 °C).
(§2) For electrophysiological experiments, sHt1a dissolved at 50 µM in ND100 was added to the recording chamber containing ND100 to a final concentration of 500 nM. After current stabilisation, normalized conductance-voltage (G-V) and channel availability relationships were obtained by measuring steady-state currents upon stepwise depolarisation for 50 ms from a holding potential of –90 mV in 5 mV increments, followed by a 50 ms pulse at –20 mV. The data were fitted with a single Boltzmann function according to I/Imax (or G/Gmax) = [1+exp(-zF(V-V1/2)/RT)]^−1, where I/Imax is the normalised current amplitude, z is the equivalent charge, V1/2 is the half-activation voltage, F is Faraday’s constant, R is the gas constant, and T is the temperature in Kelvin. Off-line data analysis was performed using Clampfit 10 (Molecular Devices, USA), Excel (Microsoft Office) and Prism 10 (GraphPad). Tests for statistical differences included a student’s t-test for V1/2 values and a Kruskal–Wallis test for current inhibition, with p < 0.05 considered to be significant.

The subject of the next data set is AmNaV. Put plainly: Two-electrode voltage clamp, AmNaV expressed in Xenopus laevis oocytes. The data set is classed as biochemical, A. mellifera. The conditions noted are these: 500 nM sHt1a.
From the text: as §1, §2

[1] abbreviates: VdNav, 500 nM sHt1a, mean ± SEM, n = 5 oocytes.
Where [2] appears, read: AmNav, mean ± SEM, n = 6 oocytes.

“Also recorded” adds a separate entry of the source. No end group written: not given here.

Take “KYCAPRKAVCNTPADCCDKSSRCAYPNYGLGYYLDSEFFGKRKICSWRL (also: bicyclic or more (positions not given here)) [Ht1a, μ-gradutoxin-Ht1a]”: the honeybee mortality/survival result with honeybees is given as “innocuous to honeybees”; with honeybees (listed as sHt1a) it was “neither peptide caused more mortality; also recorded: did not alter honeybee survival”. The “reduction in peak VdNaV current” value with VdNaV (500 nM sHt1a, ND-100 pH 7.6, ~22 °C, p = 0.0212 (Kruskal–Wallis)) turned out to be 25.3 ± 7.8%. Moreover, the “varroa vs honeybee NaV channel potency” value in the data set with VdNaV is on record as “equal potency”; in the data set on VdNaV (listed as sHt1a), “equally active”. In addition, the “change in half-maximal activation or inactivation values” in the data set with VdNaV (VdNaV, 500 nM sHt1a, vs before treatment) is listed as “without a significant change”; with AmNaV (AmNaV, vs before treatment), “without a significant change”. The “Activation Hill slope” value with VdNaV (setting [1]) was determined as 3.44 ± 0.55; with AmNaV (setting [2]), 3.62 ± 0.61. For the same substance, the “Activation V1/2” value was “–17.7 ± 0.7 mV” in the data set on VdNaV (setting [1]) and “–27.6 ± 1.3 mV” in the data set with AmNaV (setting [2]). Also, the figures for the “Steady state inactivation Hill slope” value in the data set on VdNaV (setting [1]) and in the data set on AmNaV (setting [2]) were “–4.90 ± 1.29” and “–5.12 ± 1.44”, respectively. Besides, the “Steady state inactivation V1/2” value is “–40.8 ± 0.5 mV” with VdNaV (setting [1]) and “–48.2 ± 1.0 mV” in the data set with AmNaV (setting [2]). Besides, in the data set with VdNaV (authors' comparison of 500 nM sHt1a data (VdNaV, AmNaV) with literature IC50/EC50), the “potency relative to other insect NaV channel targeting spider toxins” value is “less potent than Tx4(6-1) (IC50 = 25 nM[33]) or Dc1a (EC50 = 65 nM[34]), but similarly potent to Aps III (IC50 = 540 nM[35]) and Jingzhaotoxin-I”. Moreover, the “reduction in peak AmNaV current” value in the data set on AmNaV (ND-100 pH 7.6, ~22 °C, p = 0.0095 (Kruskal–Wallis)) was 24.7 ± 7.2%.
In the case of U1-macrothelitoxin-Gg1a, the honeybee mortality/survival entry in the data set on honeybees was “innocuous to honeybees”; with honeybees (listed as sGg1a), “neither peptide caused more mortality; also recorded: did not alter honeybee survival”.
